Source: the supplement of paper PMC4862054

Assays:
Conditions in all cases: 72 h
MDA-MB-468 [1] = system: MDA-MB-468
Method in brief: (§1)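 After 72 h on 384-well plates pre-loaded with compound in 5 µl medium, breast cancer cell lines seeded in 20 µl were assayed for viability with 2.5 µl CellTiter-Blue at 37 °C for 2 h, read at 560/590 nm. Each plate was quality-checked by Z'-factor and normalised to vehicle and a positive kill control. EC50 comes from the fitted percent-inhibition dose-response curve, censored at the top concentration, and rows scoring zero for drug sensitivity were left out.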

BT-549 [2] = system: BT-549
Method in brief: as §1

MDA-MB-231 = system: MDA-MB-231
Method in brief: as §1

MDA-MB-436 = system: MDA-MB-436
Method in brief: as §1

SK-BR-3 = system: SK-BR-3
Method in brief: as §1

HCC1599 = system: HCC1599
Method in brief: as §1

Hs578T [3] = system: Hs578T
Method in brief: as §1

CAL-120 = system: CAL-120
Method in brief: as §1

HCC1937 = system: HCC1937
Method in brief: as §1

MFM-223 = system: MFM-223
Method in brief: as §1

HCC1143 = system: HCC1143
Method in brief: as §1

MDA-MB-468 [4] = system: MDA-MB-468; remark: listed apart in the source
Protocol: (§2)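 Drug sensitivity and resistance testing (DSRT) of breast cancer cell lines in 384-well plates, 5 concentrations in 10-fold dilutions over a compound-specific 10,000-fold range. After 72 h, cytotoxicity was read by CellTox Green fluorescence and viability by CellTiter-Glo luminescence (multiplexed), normalised to DMSO and benzethonium chloride controls. EC50 is the inflection point of the fitted dose-response curve (bottom asymptote free, so it can be relative for partial curves) and is censored at the highest tested concentration. Rows with DSS 0 (no meaningful response) were excluded.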

BT-549 [5] = system: BT-549; remark: listed apart in the source
Protocol: as §2

CAL-51 = system: CAL-51
Protocol: as §2

Hs578T [6] = system: Hs578T; remark: listed apart in the source
Protocol: as §2

BT-474 = system: BT-474
Protocol: as §2

CAL-85-1 = system: CAL-85-1
Protocol: as §2

| SMILES | EC50, CellTiter-Blue viability (MDA-MB-468 [1]) [nM] | EC50, CellTiter-Blue viability (BT-549 [2]) [nM] | EC50, CellTiter-Blue viability (MDA-MB-231) [nM] | EC50, CellTiter-Blue viability (MDA-MB-436) [nM] | EC50, CellTiter-Blue viability (SK-BR-3) [nM] | EC50, CellTiter-Blue viability (HCC1599) [nM] | EC50, CellTiter-Blue viability (Hs578T [3]) [nM] | EC50, CellTiter-Blue viability (CAL-120) [nM] | EC50, CellTiter-Blue viability (HCC1937) [nM] | EC50, CellTiter-Blue viability (MFM-223) [nM] | EC50, CellTiter-Blue viability (HCC1143) [nM] | EC50, CellTox Green (MDA-MB-468 [4]) [nM] | EC50, CellTox Green (BT-549 [5]) [nM] | EC50, CellTox Green (CAL-51) [nM] | EC50, CellTox Green (Hs578T [6]) [nM] | EC50, CellTox Green (BT-474) [nM] | EC50, CellTox Green (CAL-85-1) [nM] |
| --- | --- | --- | --- | --- | --- | --- | --- | --- | --- | --- | --- | --- | --- | --- | --- | --- | --- |
| C=CCn1c(=O)c2cnc(Nc3ccc(N4CCN(C)CC4)cc3)nc2n1-c1cccc(C(C)(C)O)n1 [MK1775] | 797 | 569 | 303 | 350 | 120 | 632 | 349 | 301 | 190 | 182 | 829 | 156 | 1430 | 154 | 2130 | 928 | 331 |
| COc1cc(Nc2c(C#N)cnc3cc(OCCCN4CCN(C)CC4)c(OC)cc23)c(Cl)cc1Cl [Bosutinib] | 3180 | 3360 | 2410 | 3110 | 2130 | 2100 | 4520 | 1960 | 2670 | 5250 | 1440 | 3540 | 7580 | 1550 | 576 | 2830 | 1950 |
| COc1ccc(S(=O)(=O)Nc2cccnc2Nc2ccc(O)cc2)cc1 [ABT-751] | 748 | 2470 | 376 | 776 | 156 | 1590 | 218 | 295 | 349 | 2130 | 1780 | 2.99 | 190 | 7380 | 1410 |  | 194 |
